Key:
Test in all cases: microbe, parasite or virus in culture
Plasmodium falciparum [1] = details: F09A9, 72 h
Plasmodium falciparum [2] = details: F09A41, 72 h
Plasmodium falciparum [3] = details: F07-8, 72 h
Plasmodium falciparum [4] = details: F07-35, 72 h
Plasmodium falciparum [5] = details: F09N64, 72 h
Plasmodium falciparum [6] = details: F09A61, 72 h
Plasmodium falciparum [7] = details: F07-3, 72 h
Plasmodium falciparum [8] = details: F08B9, 72 h
Plasmodium falciparum [9] = details: F09A10, 72 h
Plasmodium falciparum [10] = details: F09N35, 72 h
Plasmodium falciparum [11] = details: F07-42, 72 h
Plasmodium falciparum [12] = details: F09N66, 72 h
Plasmodium falciparum [13] = details: F08B53, 72 h
Plasmodium falciparum [14] = details: F07-7, 72 h
Plasmodium falciparum [15] = details: F07-31, 72 h
Plasmodium falciparum [16] = details: F07-13, 72 h
Plasmodium falciparum [17] = details: F09N40, 72 h
Plasmodium falciparum [18] = details: F09N29, 72 h
Plasmodium falciparum [19] = details: F08B7, 72 h
Plasmodium falciparum [20] = details: 72 h
Description: Antimicrobial activity against Plasmodium falciparum harboring pfnhe1 ms4760 haplotype 9 carrying 3 copies of DNNND repeat and His/Asp ratio 7:6 infected in human erythrocytes after 72 hrs by SYBR green I-based fluorescence assay

Plasmodium falciparum [21] = details: F08B27, 72 h
Plasmodium falciparum [22] = details: F09N6, 72 h
Plasmodium falciparum [23] = details: F08B41, 72 h
Plasmodium falciparum [24] = details: F07-46, 72 h
Plasmodium falciparum [25] = details: F09N58, 72 h
Plasmodium falciparum [26] = details: F09A55, 72 h
Plasmodium falciparum [27] = details: F07-23, 72 h
Plasmodium falciparum [28] = details: K1, 72 h
Plasmodium falciparum [29] = details: 72 h; remark: listed apart in the source
Description: Antimicrobial activity against Plasmodium falciparum harboring pfnhe1 ms4760 haplotype 35 carrying 1 copy of DNNND repeat and His/Asp ratio 5:2 infected in human erythrocytes after 72 hrs by SYBR green I-based fluorescence assay

Plasmodium falciparum [30] = details: F09A54, 72 h
Plasmodium falciparum [31] = details: F08B2, 72 h
Plasmodium falciparum [32] = details: 72 h; remark: listed apart in the source
Description: Antimicrobial activity against Plasmodium falciparum harboring pfnhe1 ms4760 haplotype 3 carrying 1 copy of DNNND repeat and His/Asp ratio 6:2 infected in human erythrocytes after 72 hrs by SYBR green I-based fluorescence assay

Plasmodium falciparum [33] = details: W2, 72 h
Plasmodium falciparum [34] = details: F07-28, 72 h
Plasmodium falciparum [35] = details: F08B40, 72 h
Plasmodium falciparum [36] = details: F08B61, 72 h

For `C=C[C@H]1CN2CC[C@H]1C[C@H]2[C@H](O)c1ccnc2ccc(OC)cc12` [QUININE], the IC50 (Plasmodium falciparum [1]) was 562 nM, the IC50 (Plasmodium falciparum [2]) was 1300 nM and the IC50 (Plasmodium falciparum [3]) was 874 nM. It also gave an IC50 (Plasmodium falciparum [4]) of 821 nM, an IC50 (Plasmodium falciparum [5]) of 475 nM and an IC50 (Plasmodium falciparum [6]) of 373 nM. It also gave an IC50 (Plasmodium falciparum [7]) of 875 nM, an IC50 (Plasmodium falciparum [8]) of 218 nM and an IC50 (Plasmodium falciparum [9]) of 716 nM. For the same molecule, the IC50 (Plasmodium falciparum [10]) was 905 nM, the IC50 (Plasmodium falciparum [11]) was 388 nM and the IC50 (Plasmodium falciparum [12]) was 711 nM. For the same molecule, the IC50 (Plasmodium falciparum [13]) was 468 nM, the IC50 (Plasmodium falciparum [14]) was 456 nM and the IC50 (Plasmodium falciparum [15]) was 433 nM. For the same molecule, the IC50 (Plasmodium falciparum [16]) was 365 nM, the IC50 (Plasmodium falciparum [17]) was 2120 nM and the IC50 (Plasmodium falciparum [18]) was 853 nM. It also gave an IC50 (Plasmodium falciparum [19]) of 1100 nM, an IC50 (Plasmodium falciparum [20]) of 837 nM and an IC50 (Plasmodium falciparum [21]) of 870 nM. For the same molecule, the IC50 (Plasmodium falciparum [22]) was 710 nM, the IC50 (Plasmodium falciparum [23]) was 886 nM and the IC50 (Plasmodium falciparum [24]) was 894 nM. For the same molecule, the IC50 (Plasmodium falciparum [25]) was 448 nM, the IC50 (Plasmodium falciparum [26]) was 149 nM and the IC50 (Plasmodium falciparum [27]) was 447 nM. For the same molecule, the IC50 (Plasmodium falciparum [28]) was 407 nM, the IC50 (Plasmodium falciparum [29]) was 260 nM and the IC50 (Plasmodium falciparum [30]) was 243 nM. It also gave an IC50 (Plasmodium falciparum [31]) of 1020 nM, an IC50 (Plasmodium falciparum [32]) of 223 nM and an IC50 (Plasmodium falciparum [33]) of 720 nM. The IC50 (Plasmodium falciparum [34]) was 473 nM, the IC50 (Plasmodium falciparum [35]) was 260 nM and the IC50 (Plasmodium falciparum [36]) was 1130 nM.
